In patent US10960088B2, “Macrocycles, cobalt and iron complexes of same, and methods of making and using same” (The Research Foundation for The State University of New York, priority 2013, dated 2021):
Values joined by “and” are separate entries in the source; they are usually repeats but may differ in a detail not shown here. Equal entries are not always repeated. “Also recorded” adds a separate entry of the source.

How the values were obtained:
[1] = Redox potentials of iron complexes (no method given); assay type: physicochemical
[2] = Effective magnetic moment in solution from magnetic susceptibility (NMR); assay type: physicochemical; conditions: aqueous solution
Experimental: The effective magnetic moment (μeff) was calculated by using a previously known method. 5 mM Co^II complex and 5% t-butanol by volume was placed in a NMR insert while the outer NMR tube contained 5% by volume t-butanol in D2O. The μeff was calculated at 298 K (T) and monitored over a period of 72 hours using the following approach.
The mass susceptibility of solute (χg) was calculated by obtaining the observed frequency shift of the reference (Δf) in Hz, the spectrometer frequency (f) in Hz, the mass of the substance per cm^3 of solution (m), and the mass susceptibility of solvent D2O (χ0=−0.6466×10^−6 cm^3/g). The last term is neglected due to the minimal contribution to mass susceptibility of solute. The molar susceptibility (χm) is the product of χg multiplied by the molecular weight of the Co^II complex.
The effective magnetic moment was calculated by using a previously known method. In a typical experiment, oxygen-free solution of 8-20 mM [Co(TPT)]^2+ in deuterium oxide, pD 7.0, containing 5% tert-butanol by volume was placed in an NMR tube, while a reference solution of 5% tert-butanol (v/v) in deuterium oxide, pD 7.0, was placed into NMR tube insert. All solutions of [Co(TPT)]^2+ were purged with argon and kept in the absence of air. The effective magnetic moment (μeff) was calculated at 298 K (T) using the following equations 7-8. In these equations the mass susceptibility of solute (χg) was calculated by obtaining the observed frequency shift of the reference (Δf) in Hz, the spectrometer frequency (f) in Hz, the mass of the substance per cm^3 of the solution (m), and the mass susceptibility of deuterium oxide (χ0=−0.6466×10^−6 cm^3/g). The last term in eq. SI is neglected due to the minimal contribution to mass susceptibility of solute. The molar susceptibility (χm) is the product of χg multiplied by the molecular weight of the [Co(TPT)]Cl2 complex. Reported value of the effective magnetic moment was obtained by averaging of three independent experiments. χg=(−3Δf)/(4πfm)+χ0+[χ0(d0−ds)]/m eq. 7 μeff=2.84(χmT)^1/2 eq. 8

[3] = Exchange rate constants (omega plot)
Experimental: Exchange rate constants were calculated following a previously reported procedure. Measurements of on-resonance (Mz) and off-resonance (Mo) were acquired at different presaturation pulse powers between 350-1000 Hz (8-24 μT) applied for 4 seconds at 37° C. The exchange rate constant (kex) is calculated from the x-intercept from the plot of Mz/(Mo−Mz) against 1/ω1^2 (ω1 in rad/s). The rate constant, kex, is converted into units of s^−1. Samples contained 10 mM Co^II complex, 20 mM HEPES pH 7.4, and 100 mM NaCl.
The exchange rate constants were calculated by using a previously reported procedure. The magnetization of the on-resonance (Mz) and off-resonance (Mo) were acquired at different pre-saturation pulse powers between 350-1090 Hz applied for 4 seconds. To calculate the exchange rate constant (kb), the x-intercept (−1/kb^2) was obtained from the plot of Mz/(Mo−Mz) against 1/ω1^2 (ω1 in rad/s). Samples contained 16 mM [Co(TPT)]Cl2, 200 mM NaCl, and 40 mM MES or HEPES at pH 6.4-7.5. Measurements were carried out at 37° C.

[4] = Cyclic voltammetry; assay type: physicochemical; conditions: versus NHE, in water, 1 M KCl
Experimental: Cyclic voltammograms were obtained using a Princeton Applied Research Model 263A Potentiostat/Galvanostat and PowerSuite software program. CHI 104 Glassy Carbon Disk working electrode from CH Instruments, Inc. (Austin, Tex.) was used. Cyclic Voltammetry. […] (FIG. 6). The external ferrocyanide standard with Eo (Fe(III)/Fe(II))=303±10 mV vs. NHE contained 1.0 mM K4Fe(CN)6 and 1.00 M KCl under argon. The redox potential of the complex calculated based on a NHE reference using eq. 6: E^o(vs. NHE)=E^o(vs. Ag/AgCl)+167 mV, eq. 6 Determination of Magnetic Moment.

[5] = Kinetics of Co(II) oxidation and Co(III) reduction by UV-vis; assay type: physicochemical
Text: Materials and methods. Instrumentation. Varian Inova 400 MHz and Inova 500 MHz NMR spectrometers were used to collect ^1H NMR spectra. ^13C NMR spectra were acquired using a Varian Mercury 300 MHz NMR spectrometer operating at 75 MHz. The measurements of magnetic susceptibility and CEST data were acquired on Varian Inova 500 MHz NMR spectrometer. Temperature of samples during ^1H NMR and CEST experiments was controlled with FTS Systems TC-84 Kinetics Air Jet Temperature Controller. A Thermo Scientific Orion 9826BN NMR micro pH electrode connected to a SympHony SB20 pH meter and the Orion 8115BNUWP Ross-ultra semi micro pH electrode connected to a Titrino 702 pH meter were used for pH measurements. ThermoFinnigan LCQ Advantage IonTrap LC/MS equipped with a Surveyor HPLC system was used to collect mass spectral data. Absorbance spectra of [Co(TPT)]^2+ and [Co(TPT)]^3+, together with the kinetic experiments for the reduction of Co(III) with L-ascorbic acid or sodium dithionite, and for the oxidation of Co(II) with oxygen or sodium peroxydisulfate were measured with a Beckman-Coulter DU 800 UV-vis Spectrophotometer equipped with a Peltier Temperature Controller. Kinetic experiments for the oxidation of Co(II) complex were performed after equilibration of the solutions with a mixture containing 5%, 10%, and 20% of oxygen in nitrogen followed by addition of [Co(TPT)]^2+ in the minimal volume of solvent. All experiments for the reduction of […] were performed under an inert atmosphere of argon. […]

[6] = Oxidation in air / reduction with dithionite followed by 1H NMR; assay type: physicochemical

Row | SMILES | redox potential [1] | effective magnetic moment [2] | rate constant for proton exchange ([3]; pH 6.4, 37° C.) | rate constant for proton exchange ([3]; pH 6.9, 37° C.) | rate constant for proton exchange ([3]; pH 7.5, 37° C.) | reduction potential [4] | second-order rate constant for reduction by dithionite ([5]; 200 mM NaCl, 40 mM HEPES, pH 7.0, 37° C.) | second-order rate constant for oxidation by oxygen ([5]; 200 mM NaCl, 40.0 mM HEPES, pH 7.1, 25° C.) | rate constant for oxidation of the Co(II) complex ([5]; ambient pressures of oxygen) | rate constant for reduction of Co(III) complex ([5]; excess dithionate) | rate constant for oxidation, extrapolated ([5]; hypoxic conditions, 10 mm Hg, 17 μM O2) | rate constant for oxidation, extrapolated ([5]; oxygen 100 mm Hg (0.17 mM O2), arterial blood) | rate constant for oxidation of the Co(II) complex ([5]; partial pressures of oxygen of 5%, in 1/s) | stability towards oxidation in air (in words) [6]
1 | O=C([O-])CN1CCN(CC(=O)[O-])CCN(CC(=O)[O-])CC1.[Fe+3] [Fe(NOTA)] | 195 mV | – | – | – | – | – | – | – | – | – | – | – | – | –
2 | [Co+2].c1cc(CN2CCN(Cc3cc[nH]n3)CCN(Cc3cc[nH]n3)CC2)n[nH]1 [[Co(TPT)]^2+] | – | 5.7±0.2 BM | 6,200 s^−1 | 9,200 s^−1 | 12,400 s^−1 | −107 mV and −107±11 mV | 0.24 M⁻¹ s⁻¹ | 0.43 M⁻¹ s⁻¹ | 5e-06 s⁻¹ | 4e-05 s⁻¹ | 7.3e-06 s⁻¹ | 7.3e-05 s⁻¹ | 2×10^−6 | readily oxidize; also recorded: oxidizes in air to the Co(III) form
3 | [Fe+2].c1cc(CN2CCN(Cc3cc[nH]n3)CCN(Cc3cc[nH]n3)CC2)n[nH]1 [[Fe(TPT)]^2+] | – | – | – | – | – | – | – | – | – | – | – | – | – | readily oxidize
